The record followed here is ChEMBL document CHEMBL1154094, “Carbonic anhydrase inhibitors. Aromatic/heterocyclic sulfonamides incorporating phenacetyl, pyridylacetyl and thienylacetyl tails act as potent inhibitors of human mitochondrial isoforms VA and VB” (Bioorg Med Chem, 2009).

Molecules are shown by their SMILES. pKi: −log10 of the molar value.

The target of assay [1] is Carbonic anhydrase 5A, mitochondrial (Homo sapiens, UniProt P35218).
The target of assay [2] is Carbonic anhydrase 5B, mitochondrial (Homo sapiens, UniProt Q9Y2D0).
Chain of Carbonic anhydrase 5B, mitochondrial (Q9Y2D0 whole entry): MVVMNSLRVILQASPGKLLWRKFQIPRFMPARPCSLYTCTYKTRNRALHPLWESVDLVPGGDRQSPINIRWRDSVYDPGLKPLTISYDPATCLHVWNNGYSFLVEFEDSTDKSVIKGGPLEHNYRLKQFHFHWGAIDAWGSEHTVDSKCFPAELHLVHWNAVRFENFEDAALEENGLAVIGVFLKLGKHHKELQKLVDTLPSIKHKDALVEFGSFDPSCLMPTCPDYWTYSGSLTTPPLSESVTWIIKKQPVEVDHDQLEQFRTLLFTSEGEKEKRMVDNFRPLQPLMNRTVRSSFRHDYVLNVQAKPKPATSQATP

Chain of Carbonic anhydrase 5A, mitochondrial (P35218 whole entry): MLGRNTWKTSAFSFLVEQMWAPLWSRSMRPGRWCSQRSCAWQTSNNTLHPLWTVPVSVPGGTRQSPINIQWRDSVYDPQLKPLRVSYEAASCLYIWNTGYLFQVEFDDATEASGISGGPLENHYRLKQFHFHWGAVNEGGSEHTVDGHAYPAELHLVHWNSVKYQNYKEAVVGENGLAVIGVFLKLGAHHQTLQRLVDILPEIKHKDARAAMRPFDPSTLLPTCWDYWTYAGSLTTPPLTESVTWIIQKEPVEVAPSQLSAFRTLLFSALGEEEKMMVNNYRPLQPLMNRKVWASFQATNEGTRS

As usually defined, the pKi is −log10 of the Ki, conventionally taken in molar units. As for `NS(=O)(=O)c1ccc(NC(=O)Cc2ccccc2)cc1`, the negative logarithm of the Ki (pKi) was 8.17 in assay [1] and 8.10 in assay [2].
The matching figures for `NS(=O)(=O)c1ccc(NC(=O)Cc2cccs2)cc1`: 8.14 and 8.15.
The matching figures for `NS(=O)(=O)c1ccc(CNC(=O)Cc2cccs2)cc1`: 8.04 and 8.14.
For `NS(=O)(=O)c1ccc(CCNC(=O)Cc2cccs2)cc1`, the pKi is 7.99 in assay [1] and 8.10 in assay [2].
